In article PMC5082894 (PLoS ONE, 2016):

Legend:
[1] = system: HeLa CD4/CCR5-LTR/β-gal cells; experiment: Cytotoxicity by MTT method (MAGI cells); format: cell-based; settings: MTT, mean of triplicate ± SD
Experimental: (§1) Briefly, target cells (HeLa CD4/CCR5-LTR/β-gal; 10^4/well) were plated in 96-well flat microtiter culture plates. […] The test drugs were added initially and viruses were immediately inoculated onto the cells. Forty-eight hours after viral exposure, all blue cells in each well were counted. The cytotoxicity of the compound was determined by the MTT method as previously described. All experiments were performed in triplicate and AZT was used as reference anti-HIV-1 molecule.

HIV-1 92HT599 (B-X4) = experiment: PBMC antiviral assay (RT activity), HIV-1 92HT599; format: cell-based; settings: PHA-P-activated PBMCs, 125 TCID50, day 7, RT activity
Experimental: (§2) In order to confirm antiretroviral activity of the compounds, using a cell model closer to the pathophysiology, Peripheral Blood Mononuclear Cells (PBMCs) were separated from a buffy-coat from healthy HIV-, HCV-, HBV-seronegative blood donors by Ficoll-Hypaque density gradient centrifugation. The PBMCs were activated by incubation with 1 μg/ml phytohemagglutinin-P (PHA-P; Difco Laboratories) for three days in RPMI 1640 medium supplemented with 10% heat-inactivated fetal calf serum (FCS, +56 ◦C for 45 min), 2mM l-glutamine and a 1% antibiotic cocktail (penicillin, streptomycin, neomycin). After this mitogen activation, PBMCs were cultivated in the same culture medium supplemented with recombinant human interleukin-2 (rHuIL-2; 20 IU/mL) and treated and/or infected. […] All these viruses were amplified in vitro with PHA-P-activated blood mononuclear cells and 50% tissue culture infectious doses (TCID50) were calculated using Kärber’s formula [37], after limited-dilution titration. […] Viral replication was measured by quantifying reverse transcriptase (RT) activity in the cell culture supernatants using the Lenti RT Activity Kit (Cavidi) and AZT was used as reference anti-HIV-1 molecule. EC50 were then calculated and expressed in μM.

PBMCs = experiment: Cytotoxicity in PBMCs; format: cell-based, human; settings: PBMCs
HIV-1 LAI (B-X4) = experiment: PBMC antiviral assay (RT activity), HIV-1 LAI; format: cell-based; settings: PHA-P-activated PBMCs, 125 TCID50, day 7, RT activity
Experimental: as §2

[2] = system: HIV-1 96USHIPS4 (B-X4/R5); experiment: PBMC antiviral assay (RT activity), HIV-1 96USHIPS4; format: cell-based; settings: PHA-P-activated PBMCs, 125 TCID50, day 7, RT activity
Experimental: as §2

HIV-1 NL4-3 = experiment: MAGI assay, HIV-1 NL4-3; format: cell-based; settings: MAGI cells, 48 h, mean of triplicate ± SD
Experimental: as §1

HIV-1 LAI = experiment: MAGI assay, HIV-1 LAI; format: cell-based; settings: MAGI cells, 48 h, mean of triplicate ± SD
Experimental: as §1

HIV-1 98IN017 (C-X4) = experiment: PBMC antiviral assay (RT activity), HIV-1 98IN017; format: cell-based; settings: PHA-P-activated PBMCs, 125 TCID50, day 7, RT activity
Experimental: as §2

HIV-1 Ba-L (B-R5) = experiment: PBMC antiviral assay (RT activity), HIV-1 Ba-L; format: cell-based; settings: PHA-P-activated PBMCs, 125 TCID50, day 7, RT activity
Experimental: as §2

HIV-1 92UG029 (A-X4) = experiment: PBMC antiviral assay (RT activity), HIV-1 92UG029; format: cell-based; settings: PHA-P-activated PBMCs, 125 TCID50, day 7, RT activity
Experimental: as §2

EC50 (HIV-1 92HT599 (B-X4)): 12 ± 2 nM
EC50 (HIV-1 LAI (B-X4)): 12 ± 3 nM
EC50 [2]: 18 ± 10 nM
EC50 (HIV-1 NL4-3): 21 ± 11 nM
EC50 (HIV-1 LAI): 12 ± 8 nM
EC50 (HIV-1 98IN017 (C-X4)): 6 ± 2 nM
EC50 (HIV-1 Ba-L (B-R5)): 15 ± 21 nM
EC50 (HIV-1 92UG029 (A-X4)): 9 ± 4 nM
Structure (SMILES): Cc1cn([C@H]2C[C@H](N=[N+]=[N-])[C@@H](CO)O2)c(=O)[nH]c1=O [AZT, reference compound]
CC50 [1]: > 100 µM
CC50 (PBMCs): > 1000 nM
